Source: article PMC7792996, “Crystal structure of death-associated protein kinase 1 in complex with the dietary compound resveratrol” (IUCrJ, 2021)

Legend:
[1] = target: T1, Death-associated protein kinase 1 (DAPK1) (Homo sapiens, UniProt P53355); experiment: fluorescent probe saturation binding (BC50), competed by RSV
T1 construct: catalytic domain, residues 1–285

[2] = target: T1, Death-associated protein kinase 1 (DAPK1); experiment: malachite green intrinsic ATPase assay at […] ATP; format: biochemical

T1 sequence (P53355 1-285): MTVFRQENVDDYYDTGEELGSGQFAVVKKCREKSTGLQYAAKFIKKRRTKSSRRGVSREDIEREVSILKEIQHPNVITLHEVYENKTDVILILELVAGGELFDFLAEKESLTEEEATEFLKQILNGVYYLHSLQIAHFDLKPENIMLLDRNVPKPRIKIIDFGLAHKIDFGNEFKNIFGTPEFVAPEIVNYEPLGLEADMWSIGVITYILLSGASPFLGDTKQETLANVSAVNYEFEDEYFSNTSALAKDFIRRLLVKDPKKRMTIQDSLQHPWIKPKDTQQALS

| Compound | Kd [1] [µM] | malachite green intrinsic ATPase assay at 30 μM ATP [2] |
| --- | --- | --- |
| O=S(=O)(O)c1cccc2cccc(Nc3ccccc3)c12 [ANS, 8-anilinonaphthalene-1-sulfonic acid] | 7.3 | – |
| O=c1c(O)c(-c2ccc(O)cc2)oc2cc(O)cc(O)c12 [KAE, kaempferol] | – | The inhibitory potency of KAE was higher than that of API |
